Source: patent US11780841B2, “3,6-methano-1H-pyrrolo[3,2-b]pyridine and 3,6-methano-1H-pyrrolo[3,2-c]pyridine compounds and medicaments using same” (priority 2018, dated 2023)

What follows are compounds tested on recombinant rabies virus 1088 strain expressing Gaussia Luciferase (GLuc) (1088/GLuc). Details: read-out: Anti-rabies activity.
Type: cell-based

Row | Compound | IC50 [µM]
1 | CC(C)CCN1C[C@H]2C[C@]3(C(=O)NCCC(=O)O)NC[C@H]2[C@H]1[C@H]3Cc1cccc2ccccc12 [IF-413] | 10 to 30
2 | NC(=O)CCNC(=O)[C@]12NC[C@H]3C[C@H]1CN(CC1CCCCC1)[C@H]2[C@@H]3CCc1ccccc1 [IB-710] | < 5
3 | CC(C)CCNC(=O)[C@@]12C[C@@H]3CN(CCc4ccccc4)[C@@H]([C@@H]3CN1)[C@H]2Cc1ccc(O)cc1 [IF-707] | < 5
4 | O=C(NCc1ccc(O)cc1)[C@]12NC[C@H]3C[C@H]1CN(Cc1cccc4ccccc14)[C@H]2[C@@H]3Cc1cccc2ccccc12 [IB-417] | 10 to 30
5 | CC(C)C[C@@H]1[C@@H]2[C@@H]3CN[C@@]1(C(=O)NCc1ccccc1)C[C@@H]3CN2Cc1ccc(N(C)C)cc1 [IF-848] | 5 to 10
6 | CC(C)CCNC(=O)[C@@]12C[C@@H]3CN(CCc4ccccc4)[C@@H]([C@@H]3CN1)[C@H]2Cc1ccccc1 [IF-744] | < 5
7 | CC(C)C[C@@H]1[C@@H]2[C@@H]3CN[C@@]1(C(=O)NCCO)C[C@@H]3CN2Cc1cccc2ccccc12 [IF-604] | 10 to 30
8 | CC(C)C[C@@H]1[C@@H]2[C@@H]3CN[C@@]1(C(=O)NCc1cccc4ccccc14)C[C@@H]3CN2CCO (relative stereo) [IF-542] | < 5
9 | CC(C)CCN1C[C@H]2C[C@]3(C(=O)NCc4ccc(O)cc4)NC[C@H]2[C@H]1[C@H]3Cc1cccc2ccccc12 [IF-465] | 10 to 30
10 | N=C(N)NCCCNC(=O)[C@]12NC[C@H]3C[C@H]1CN(CC1CCCCC1)[C@H]2[C@@H]3CCc1ccccc1 [IB-362] | < 5
11 | CC(C)CCN1CC2CC3CNC2(C(=O)NCc2ccc(F)cc2)C1C3CC(C)C (stereo not drawn) [IB-553] | < 5
12 | N=C(N)NCCC[C@@H]1[C@H]2CN[C@@]3(C(=O)NCc4ccc(F)cc4)[C@@H](C2)CN(Cc2ccc(O)cc2)[C@@H]13 [IB-207] | 10 to 30
13 | CC(C)CCNC(=O)[C@@]12C[C@@H]3CN(Cc4ccc(O)cc4)[C@@H]([C@@H]3CN1)[C@H]2Cc1cccc2ccccc12 [IF-684] | 10 to 30
14 | O=C(NCc1ccccc1)[C@]12NC[C@H]3C[C@H]1CN(Cc1ccccc1)[C@H]2[C@@H]3Cc1cccc2ccccc12 [IB-777] | < 5
15 | Cc1ccc(CN2CC3CC4C=NC3(C(=O)NCc3ccccc3)C2C4CC(C)C)cc1 (stereo not drawn) [IIB-86] | 5 to 10
16 | CCCCCCNC(=O)[C@@]12C[C@@H]3CN(CC(N)=O)[C@@H]([C@@H]3CN1)[C@H]2Cc1cccc2ccccc12 [IF-110] | < 5
17 | CCCCCCNC(=O)[C@@]12C[C@@H]3CN(CC(N)=O)[C@@H]([C@@H]3CN1)[C@H]2CCc1ccccc1 [IF-109] | 10 to 30
18 | CC(C)CNC(=O)[C@]12NC[C@H]3C[C@H]1CN(CCc1ccccc1)[C@H]2[C@@H]3Cc1ccccc1 [IB-759] | < 5
19 | CC(C)CN1C[C@H]2C[C@]3(C(=O)NCc4cccc5ccccc45)NC[C@H]2[C@H]1[C@H]3Cc1ccc(O)cc1 (relative stereo) [IF-568] | < 5
20 | COc1ccc(CN2CC3CC4C=NC3(C(=O)NCc3ccccc3)C2C4CC(C)C)cc1 (stereo not drawn) [IIB-85] | 5 to 10
21 | CC(C)C[C@@H]1[C@@H]2CN[C@@]3(C(=O)NCCc4ccccc4)[C@@H](C2)CN(Cc2ccccc2)[C@@H]13 (relative stereo) [IB-12] | 10 to 30
22 | CC(C)CCNC(=O)[C@]12NC[C@H]3C[C@H]1CN(Cc1ccc(O)cc1)[C@H]2[C@@H]3CC(C)C [IB-739] | 10 to 30
23 | O=C(NCc1ccc(F)cc1)[C@]12NC[C@H]3C[C@H]1CN(CCc1ccccc1)[C@H]2[C@@H]3Cc1ccc(O)cc1 [IB-642] | < 5

Row | Compound | IC50 [µM]
24 | CC(C)CCNC(=O)[C@]12NC[C@H]3C[C@H]1CN(CC(C)C)[C@H]2[C@@H]3Cc1ccccc1 [IB-780] | < 5
25 | CC(C)CCN1C[C@@H]2C[C@@H]3CN[C@]2(C(=O)NCc2ccccc2)[C@@H]1[C@@H]3CC(C)C [IB-876] | 10 to 30
26 | CC(C)CC[C@@H]1[C@H]2CN[C@@]3(C(=O)NCCO)[C@@H](C2)CN(CCc2ccccc2)[C@@H]13 [IB-461] | 10 to 30
27 | O=C(NCc1ccc(O)cc1)[C@@]12C[C@@H]3CN(Cc4ccc(F)cc4)[C@@H]([C@@H]3CN1)[C@H]2Cc1ccccc1 [IF-481] | 10 to 30
28 | CCCCCCNC(=O)[C@@]12C[C@@H]3CN(Cc4cccc5ccccc45)[C@@H]([C@@H]3CN1)[C@H]2CCCNC(=N)N [IF-243] | < 5
29 | CC(C)CCN1C[C@H]2C[C@]3(C(=O)NCc4cccc5ccccc45)NC[C@H]2[C@H]1[C@H]3CC(C)C [IF-705] | < 5
30 | O=C(O)CCNC(=O)[C@]12NC[C@H]3C[C@H]1CN(CCO)[C@H]2[C@@H]3Cc1cccc2ccccc12 [IB-610] | 10 to 30
31 | CC(C)CCN1CC2CC3(C(=O)NCc4ccc(F)cc4)N=CC2C1C3CC(C)C (stereo not drawn) [IIF-104] | 5 to 10
32 | O=C(NCc1cccc2ccccc12)[C@@]12C[C@@H]3CN(Cc4ccccc4)[C@@H]([C@@H]3CN1)[C@H]2Cc1ccccc1 [IF-805] | 10 to 30
33 | COC(=O)N1C[C@H]2C[C@H]3CN(Cc4ccc(C)cc4)[C@@H]([C@@H]2CC(C)C)[C@]31C(=O)NCc1ccccc1 (relative stereo) [IB-885] | 5 to 10
34 | NC(=O)CN1C[C@@H]2C[C@@H]3CN[C@]2(C(=O)NCCc2ccccc2)[C@@H]1[C@@H]3Cc1ccccc1 [IB-87] | < 5
35 | NC(=O)CN1C[C@@H]2C[C@@H]3CN[C@]2(C(=O)NCCc2ccccc2)[C@@H]1[C@@H]3Cc1cccc2ccccc12 [IB-97] | < 5
36 | CCOc1ccc(CN2C[C@H]3C[C@]4(C(=O)NCc5ccccc5)NC[C@H]3[C@H]2[C@H]4CC(C)C)cc1 [IF-853] | 5 to 10
37 | CC(C)C[C@@H]1[C@@H]2[C@@H]3CN[C@@]1(C(=O)NCc1ccccc1)C[C@@H]3CN2Cc1ccc(Cl)cc1 [IF-839] | 5 to 10
38 | CC(C)CN1C[C@H]2C[C@]3(C(=O)NCc4ccc(F)cc4)NC[C@H]2[C@H]1[C@H]3Cc1ccccc1 [IF-815] | < 5
39 | CC(C)CCNC(=O)[C@@]12C[C@@H]3CN(CCO)[C@@H]([C@@H]3CN1)[C@H]2Cc1cccc2ccccc12 [IF-660] | 10 to 30
40 | CC(C)CC[C@@H]1[C@@H]2[C@@H]3CN[C@@]1(C(=O)NCc1ccccc1)C[C@@H]3CN2CC(C)C [IF-850] | 5 to 10
41 | CCCCCCNC(=O)[C@]12NC[C@H]3C[C@H]1CN(CCCNC(=N)N)[C@H]2[C@@H]3CCc1ccccc1 [IB-174] | 10 to 30
42 | CC(C)CC[C@@H]1[C@@H]2[C@@H]3CN[C@@]1(C(=O)NCc1ccc(O)cc1)C[C@@H]3CN2CCc1ccccc1 [IF-468] | 10 to 30
43 | O=C(NCc1ccc(O)cc1)[C@@]12C[C@@H]3CN(CCc4ccccc4)[C@@H]([C@@H]3CN1)[C@H]2Cc1ccccc1 [IF-469] | 10 to 30
44 | CC(C)CC[C@@H]1[C@H]2CN[C@@]3(C(=O)NCCCNC(=N)N)[C@@H](C2)CN(CCc2ccccc2)[C@@H]13 [IB-346] | 10 to 30
45 | CC(C)CNC(=O)[C@@]12C[C@@H]3CN(Cc4cccc5ccccc45)[C@@H]([C@@H]3CN1)[C@H]2CC(N)=O [IF-226] | 10 to 30
46 | O=C(NCc1ccc(O)cc1)[C@@]12C[C@@H]3CN(Cc4ccccc4)[C@@H]([C@@H]3CN1)[C@H]2Cc1ccccc1 [IF-494] | 10 to 30

Row | Compound | IC50 [µM]
47 | CC(C)CNC(=O)[C@]12NC[C@H]3C[C@H]1CN(Cc1ccc(F)cc1)[C@H]2[C@@H]3Cc1ccc(O)cc1 [IB-631] | 10 to 30
48 | CC(C)CNC(=O)[C@@]12C[C@@H]3CN(CC4CCCCC4)[C@@H]([C@@H]3CN1)[C@H]2Cc1cccc2ccccc12 [IF-646] | < 5
49 | CC(C)CN1C[C@@H]2C[C@@H]3CN[C@]2(C(=O)NCc2ccc(F)cc2)[C@@H]1[C@@H]3Cc1ccc(O)cc1 [IB-498] | < 5
50 | N=C(N)NCCCNC(=O)[C@]12NC[C@H]3C[C@H]1CN(Cc1ccccc1)[C@H]2[C@@H]3CCc1ccccc1 [IB-279] | 10 to 30
51 | CCCCCCNC(=O)[C@@]12C[C@@H]3CN(CC4CCCCC4)[C@@H]([C@@H]3CN1)[C@H]2Cc1ccc(O)cc1 (relative stereo) [IF-514] | < 5
52 | CC(C)CC[C@@H]1[C@@H]2[C@@H]3CN[C@@]1(C(=O)NC(C)C)C[C@@H]3CN2Cc1ccc(O)cc1 [IF-503] | < 5
53 | O=C(NCCO)[C@]12NC[C@H]3C[C@H]1CN(Cc1ccc(F)cc1)[C@H]2[C@@H]3Cc1ccccc1 [IB-649] | 10 to 30
54 | CC(C)CC[C@@H]1[C@@H]2[C@@H]3CN[C@@]1(C(=O)NCc1ccccc1)C[C@@H]3CN2CC1CCCCC1 [IF-740] | 10 to 30
55 | NC(=O)CCNC(=O)[C@@]12C[C@@H]3CN(CC4CCCCC4)[C@@H]([C@@H]3CN1)[C@H]2Cc1cccc2ccccc12 [IF-536] | < 5
56 | CC(C)CC[C@@H]1[C@H]2CN[C@@]3(C(=O)NCC(C)C)[C@@H](C2)CN(CCO)[C@@H]13 [IB-372] | 10 to 30
57 | CC(C)CC[C@@H]1[C@H]2CN[C@@]3(C(=O)NCCC(N)=O)[C@@H](C2)CN(Cc2ccc(F)cc2)[C@@H]13 [IB-365] | 10 to 30
58 | CC(C)CNC(=O)[C@@]12C[C@@H]3CN(Cc4ccccc4)[C@@H]([C@@H]3CN1)[C@H]2CCc1ccccc1 [IF-670] | < 5
59 | CC(C)CNC(=O)[C@@]12C[C@@H]3CN(CC4CCCCC4)[C@@H]([C@@H]3CN1)[C@H]2CC(C)C [IF-742] | 10 to 30
60 | CC(C)CN1C[C@@H]2C[C@@H]3CN[C@]2(C(=O)NCCO)[C@@H]1[C@@H]3Cc1cccc2ccccc12 [IB-687] | 10 to 30
61 | CC(C)CC[C@@H]1[C@@H]2[C@@H]3CN[C@@]1(C(=O)NCCO)C[C@@H]3CN2Cc1cccc2ccccc12 [IF-613] | 10 to 30
62 | COc1ccc(CN2C[C@@H]3C[C@@H]4CN[C@]3(C(=O)NCc3ccccc3)[C@@H]2[C@@H]4CC(C)C)cc1 [IB-866] | 5 to 10
63 | CC(C)CNC(=O)C12NCC3CC1CN(CCc1ccccc1)C2C3CCC(=O)O (stereo not drawn) [IB-508] | 10 to 30
64 | CC(C)CCN1C[C@@H]2C[C@@H]3CN[C@]2(C(=O)NCc2ccc(F)cc2)[C@@H]1[C@@H]3CCC(=O)O [IB-386] | 10 to 30
65 | CC(C)CNC(=O)[C@@]12C[C@@H]3CN(CCC(=O)O)[C@@H]([C@@H]3CN1)[C@H]2Cc1ccc(O)cc1 [IF-455] | 10 to 30
66 | CC(C)CNC(=O)[C@]12NC[C@H]3C[C@H]1CN(CC1CCCCC1)[C@H]2[C@@H]3Cc1ccc(O)cc1 [IB-770] | 10 to 30
67 | CC(C)CCC1C2CNC3(C(=O)NCc4ccc(O)cc4)C(C2)CN(Cc2ccc(F)cc2)C13 (stereo not drawn) [IB-582] | 10 to 30
68 | CC(C)CN1C[C@@H]2C[C@@H]3CN[C@]2(C(=O)NCCC(N)=O)[C@@H]1[C@@H]3Cc1cccc2ccccc12 [IB-737] | 10 to 30

Same assay, conditions: read-out: IC50

Row | Compound | IC50 [µM]
69 | CC(C)C[C@@H]1[C@@H]2CN[C@@]3(C(=O)NCCc4ccccc4)[C@@H](C2)CN(Cc2ccccc2)[C@@H]13 (relative stereo) [IB-12] | 15.5
